Entries after “also recorded” stand apart in the source; their conditions may differ.
Assays:
[1] = test system: GH3 cells stably expressing HER2CA; experiment: RIA of PRL and GH secretion in culture medium of GH3 stable transfectants; format: cell-based, rat; settings: HER2CA GH3 cells, 1 μM
Protocol: μM) for the indicated times, and Realtime PCR analysis performed. C. GH and PRL secretion in the culture medium determined by RIA. Hormone secretion levels were normalized for cell numbers, Values are mean±SEM. *p<0.05, **p<0.01.
GH3 rat lacto-somatotroph tumor cells secreting PRL and GH were purchased from the American Type Culture Collection. HER2CA cells were generated by transfection with pcDNA3-HER2CA (V654E) purchased from Addgene (Addgene plasmid 16259). Stable colonies were selected in the presence of 500 μg/ml G418 (Invitrogen). A vector control cell line pcDNA3 was simultaneously established by transfecting pcDNA3 that lacked inserted cDNA. After selection and propagation of stable transfectants, cells were cultured in DMEM/F12 medium containing 15% horse serum, 2.5% FBS, penicillin/streptomycin, and 500 μg/m G418. After synchronization by serum starvation (medium containing 0.2% bovine serum albumin for ˜24 h), cells with treatment agents was grown in fresh serum-depleted medium (0.2% bovine serum albumin), and samples collected at the indicated times.
RIAs for rat GH and PRL were performed in duplicate, using reagents provided by the National Hormone and Pituitary Program, National Institute of Diabetes and Digestive and Kidney Diseases (Harbor-UCLA Medical Center, Torrance, Calif., USA). Iodination of GH and PRL (5 μg) with iodine-125 (500 μCi) (PerkinElmer life & Analytical Sciences, Boston, Mass., USA) mixed with 0.1 mg Iodo-Gen (Pierce, Rockford, Ill.) was performed using 10-ml columns prepared by G-75 Sephadex (Sigma Chemical Co.). Low interspecies cross-reactivity of the GH and PRL assays were previously shown (8).

[2] = test system: GH3 cells stably expressing HER2CA; experiment: Soft agarose colony-forming assay, HER2CA transfectants; format: cell-based, rat; settings: for suppression of colony formation in soft agar: Her2CA-GH3 cells
Protocol: B. GH3 cells stably expressing HER2CA or pcDNA3 were plated (4,000 per well) in 96 well plates for the indicated times, and WST assay performed. C. […] Values are mean±SEM. *p<0.05, ** p<0.01, ^‡p<0.05 vs pcDNA3 control, ^†p<0.05 vs HER2CA control, ^‡‡p<0.05 vs pcDNA3 control, ^††p<0.05 vs HER2CA control.
Base layers consisting of growth medium containing 0.6% low-melting point agarose (Invitrogen) were poured onto 6-well plates and allowed to solidify. Cells (8×10^3 per well) were plated in triplicate in top layers consisting of growth medium containing 0.3% agarose. Seven to ten days later, cells were stained with 0.2% iodonitrotetrazolium chloride (Invitrogen), and colonies composed of 50 cells were counted manually in 5 randomly selected fields.

[3] = test system: HER2CA GH3 tumors; experiment: HER2CA GH3 subcutaneous tumors in Wistar-Furth rats; format: in vivo, rat; settings: for suppression of postmortem tumor weight / suppression of serum PRL levels / HER2CA tumor volume: Wistar-Furth rats; for suppression of postmortem tumor weight / suppression of serum PRL levels: 100 mg/kg daily oral gavage; for HER2CA tumor volume: 100 mg/kg daily oral gavage from day 3 after inoculation, vehicle 924±48
Protocol: B-C. […] (B). Tumor weights were measured after euthanasia (C). Serum PRL levels were measured by RIA (D), and ex vivo Realtime PCR performed (E). Tumor volumes were calculated using the formula, π/6×large diameter×small diameter^2.
In accordance with Institutional Animal Care and Use Committee guidelines, 4-5 wk old female Wistar-Furth rats (Harlan Sprague Dawley, Inc.) were inoculated with pcDNA3 (n=6) or HER2CA (n=6) cells (3×10^6 cells/rat). Rats were fed with a commercial pelleted diet ad libitum and tap water. Tumor volumes were measured with a caliper and calculated using the formula, π/6×large diameter×small diameter^2 as previously described (8). […] 500 μl blood was collected twice for hormone assessment (before inoculation, 2 days after inoculation) by retro-orbital bleeding. This procedure was performed under isoflurane inhalational anesthesia via a nose cone connected to a rodent anesthesia machine (Kent Scientific Corporation). On the last treatment day (day 7), rats were euthanized within 3 h of drug administration. Cardiac blood was collected with 18-gauge syringes and tumors excised and weighed. Fragments of each tumor were fixed in formalin and embedded in paraffin for immunohistochemical staining, preserved in RNA later solution (Ambion) for subsequent RNA extraction and frozen in liquid nitrogen for subsequent protein extraction.
To evaluate in vivo effects of HER2 overexpression on lactosomatotroph tumor growth, HER2CA or pcDNA3 transfectants were inoculated subcutaneously into female Wistar-Furth rats. […] Next, the effects of lapatinib administration on tumor growth and hyperprolactinemia were examined. […] After euthanasia, tumors were excised and immediately weighed and processed.

[4] = test system: human prolactinoma cells; experiment: RIA of PRL in culture media of primary human prolactinoma cell cultures; format: cell-based; settings: for suppression of PRL secretion into the culture medium: 24 hr
Protocol: A, B, D, and E. After trans-sphenoidal surgery of human prolactinomas, tumor cells were cultured. […] PRL levels in culture media were measured using RIA (B). H&E and PRL staining of tumor and confocal immunocytochemistry of EGFR and HER2 (Tumor A) (C), or for Tumor B (F). Magnification of these figures was 100×. […] PRL levels in culture media were measured using RIA (E). Prolactinoma cells (Tumor B) were treated with U0126 (0.1-5 μM) for 24 hr, and Realtime PCR of PRL performed (G).
Human prolactinoma tissues were obtained at the time of surgery (Pituitary Center, Cedars-Sinai Medical Center) and transferred in 0.3% BSA containing DMEM according to an IRB-approved protocol. After washing with medium, tumor tissues were chopped with a sterile scalpel into approximately 1-2 mm pieces. Tissues were rinsed and digested with DMEM containing 0.3% BSA, 0.35% collagenase, and 0.15% hyaluronidase at 37° C. for 30 min The mixture was centrifuged at 1,500 rpm for 5 min at 4° C., and the cell pellet resuspended in an appropriate volume of culture medium containing 10% FBS and antibiotics in 48 well plates. After 24 hr incubation with serum depleted starvation medium (DMEM with 0.3% BSA), treatment agents were added with fresh serum-depleted medium (0.3% BSA), and medium collected for RIA. RNA was extracted after 24 hr treatment. Medium was also collected at baseline. To normalize for cell number effect, the PRL value of treated medium was divided by that of pre-treatment starvation medium to obtain a treated value for each well (n=4).

[5] = test system: GH3 cells stably expressing HER2CA; experiment: Western blotting of cleaved caspase-3 (apoptosis); settings: 0.1-10 μM, 24 hr
[6] = Tumor A, lapatinib 0.1-10 μM or gefitinib 10 μM

| Compound | PRL secretion, time course of suppression ([1]; 24 and 48 h) | suppression of colony formation in soft agar [2] | suppression of postmortem tumor weight [3] | suppression of serum PRL levels [3] | HER2CA tumor volume [3] | suppression of PRL secretion into the culture medium [4, 6] | suppression of PRL secretion into the culture medium ([4]; Tumor B, 0.01-10 μM) | induction of cleaved caspase-3 [5] | suppression of PRL secretion ([1]; 24 h) | suppression of PRL secretion ([1]; 48 h) | colony formation in soft agar ([2]; HER2CA GH3 cells, 0.1-10 μM every third day) | change in Her2CA-GH3 tumor size ([3]; rats, after one week of treatment) | suppression of human PRL secretion ([4]; human primary prolactinoma tumor cell cultures, tumor not named) |
| --- | --- | --- | --- | --- | --- | --- | --- | --- | --- | --- | --- | --- | --- |
| COc1cc2ncnc(Nc3ccc(F)c(Cl)c3)c2cc1OCCCN1CCOCC1 [gefitinib] | suppressed PRL secretion only at 24 h | ~50% | ~30% | ~40% | 695±63 mm^3 | ~50% | ~40% | dose-dependently induced cleaved caspase3 | – | – | – | – | – |
| CS(=O)(=O)CCNCc1ccc(-c2ccc3ncnc(Nc4ccc(OCc5cccc(F)c5)c(Cl)c4)c3c2)o1 [lapatinib, Lapatinib] | – | ~80% | ~40% | ~50% | 549±45 mm^3 | ~70% | ~60% | dose-dependently induced cleaved caspase3; also recorded: induced cleaved-caspase 3 | 40% | 40% | fewer HER2CA colonies | −40% | ~70% |

From US20120308567A1, “USE OF TYROSINE KINASE INHIBITORS FOR TREATMENT OF PROLACTINOMA” (CEDARS-SINAI MEDICAL CENTER, priority 2010, published 2012)
